Some results are limits rather than exact numbers.

One assay deals with LC3B (Homo sapiens, UniProt Q9GZQ8). As to the kind of experiment: Fluorescence Polarization (FP) Assay: displacement of FITC-labeled peptide from GST-LC3B. It counts as binding.
Settings: not given
On the procedure:
The compounds of the present invention for regulating the autophagy-related protein LC3B were tested by Fluorescence Polarization (FP) Assay.
Fluorescence Polarization (FP) Assay Test
`CN(C)CCNC=C1C(=O)CC(c2cccc(F)c2Cl)CC1=O` (stereo not drawn) [Compound 410] had an IC50 below 3 µM.

Still in this assay, the particulars now being: Fluorescence Polarization assay; GST-LC3B 180 nM, FITC-labeled peptide 18 nM, 25° C.; read-out: IC50.
In the case of `O=C1CC(c2ccccc2[N+](=O)[O-])CC(=O)C1=CO` (stereo not drawn) [Compound 434, 2-(hydroxymethylene)-5-(2-nitrophenyl)cyclo-hexane-1,3-dione], the IC50 was 3 to 15 µM. Take `O=C1CC(c2ccccc2)CC(=O)C1=CN[C@@H](Cc1c[nH]cn1)C(=O)O` (stereo partly drawn) [Compound 126, ((2,6-dioxo-4-phenylcyclo-hexylidene)methyl)-L-histidine]: the half-inhibitory concentration (IC50) fell in the range of 15 to 100 µM. The same measure, in the same setting: the figure for `O=C1CC(c2ccc(-c3ccncc3)cc2)CC(=O)C1=CNCCN1CCN(CCO)CC1` (stereo not drawn) [Compound 73, 2-(((2-(4-(2-hydroxyethyl)piperazin-1-yl)ethyl)amino)methylene)-5-(4-(pyridin-4-yl)phenyl) cyclohexane-1,3-dione] is below 3 µM. Same read-out and setting: the same measure for `O=C1CC(c2ccc(O)cc2)CC(=O)C1=CO` (stereo not drawn) [Compound 443, 2-(hydroxymethylene)-5-(4-hydroxyphenyl)cyclo-hexane-1,3-dione]: 15 to 100 µM; for `CN(C)C=C1C(=O)CC(c2c[nH]c3ccccc23)CC1=O` (stereo not drawn) [Compound 283, 2-((dimethylamino)methylene)-5-(1H-indol-3-yl)cyclohexane-1,3-dione]: below 3 µM.

Consider `O=C1CC(c2cnc3c(N4CCOCC4)nccn23)CC(=O)C1=CNCCN1CCN(CCO)CC1` (stereo not drawn) [Compound 25, 2-(((2-(4-(2-hydroxyethyl)piperazin-1-yl)ethyl)amino)methylene)-5-(8-morpholinoimidazo [1,2-a]pyrazin-3-yl) cyclohexane-1,3-dione], for which the half-inhibitory concentration (IC50) fell in the range of 100 to 1000 µM. Still for that read-out and setting: the same measure for `CN(C)CCNC=C1C(=O)CC(c2cc(F)ccc2Cl)CC1=O` (stereo not drawn) [Compound 351, 5-(2-chloro-5-fluorophenyl)-2-(((2-(dimethylamino)ethyl)amino)methylene) cyclohexane-1,3-dione]: below 3 µM; for `O=C1CC(c2ccccc2)CC(=O)C1=CNCCc1c[nH]c2ccccc12` (stereo not drawn) [Compound 135, 2-(((2-(1H-indol-3-yl)ethyl)amino)methylene)-5-phenylcyclo-hexane-1,3-dione]: 100 to 1000 µM.

As to `CN(C)CCNC=C1C(=O)CC(c2cc(C(F)(F)F)ccc2F)CC1=O` (stereo not drawn) [Compound 376, 2-(((2-(dimethylamino)ethyl)amino)methylene)-5-(2-fluoro-5-(trifluoromethyl)phenyl) cyclohexane-1,3-dione], the IC50 was below 3 µM.

With `CN(C)CCNC=C1C(=O)CC(c2c(Cl)ccc(F)c2F)CC1=O` (stereo not drawn) [Compound 398, 5-(6-chloro-2,3-difluorophenyl)-2-(((2-(dimethylamino)ethyl)amino)methylene) cyclohexane-1,3-dione], the IC50 was below 3 µM. With `CC(NC=C1C(=O)CC(c2ccccc2)CC1=O)c1ccccn1` (stereo not drawn) [Compound 160, 5-phenyl-2-(((1-(pyridin-2-yl)ethyl)amino)methylene) cyclohexane-1,3-dione], the IC50 is 15 to 100 µM. For `CN(C)C=C1C(=O)CC(c2cccc(C(=O)NCCc3ccccc3)c2)CC1=O` (stereo not drawn) [Compound 267, 3-(4-((dimethylamino)methylene)-3,5-dioxocyclohexyl)-N-phenethylbenzamide], the IC50 lay within 3 to 15 µM. Regarding `CN(C)C=C1C(=O)CC(c2ccc3c(c2)CCO3)CC1=O` (stereo not drawn) [Compound 251, 5-(2,3-dihydrobenzofuran-5-yl)-2-((dimethylamino)methylene) cyclohexane-1,3-dione], the IC50 was below 3 µM. For `CN(C)CCNC=C1C(=O)CC(c2c(F)cccc2Br)CC1=O` (stereo not drawn) [Compound 306, 5-(2-bromo-6-fluorophenyl)-2-(((2-(dimethylamino)ethyl)amino)methylene) cyclohexane-1,3-dione], the half-inhibitory concentration (IC50) was below 3 µM. The same measure, in the same setting: the same measure for `O=C1CC(c2ccc(-c3nccs3)cc2)CC(=O)C1=CNCCN1CCN(CCO)CC1` (stereo not drawn) [Compound 81, 2-(((2-(4-(2-hydroxyethyl)piperazin-1-yl)ethyl)amino)methylene)-5-(4-(thiazol-2-yl)phenyl) cyclohexane-1,3-dione]: 15 to 100 µM. With `CN(C)CCNC=C1C(=O)CC(c2cscc2-c2ccccc2)CC1=O` (stereo not drawn) [Compound 371, 2-(((2-(dimethylamino)ethyl)amino)methylene)-5-(4-phenylthiophen-3-yl)cyclohexane-1,3-dione], the IC50 is below 3 µM.

`O=C1CC(c2ccccc2-c2ccncc2)CC(=O)C1=CNCCN1CCN(CCO)CC1` (stereo not drawn) [Compound 188, 2-(((2-(4-(2-hydroxyethyl)piperazin-1-yl)ethyl)amino)methylene)-5-(2-(pyridin-4-yl)phenyl) cyclohexane-1,3-dione]: the IC50 was in the range of 3 to 15 µM.

Consider `COc1ccc(Br)c(C2CC(=O)C(=CO)C(=O)C2)c1` (stereo not drawn) [Compound 432, 2-(hydroxymethylene)-5-(2-bromo-5-methoxyphenyl)cyclo-hexane-1,3-dione], for which the IC50 is below 3 µM. Same read-out and setting: the figure for `O=C(O)CCCNC=C1C(=O)CC(c2ccccc2)CC1=O` (stereo not drawn) [Compound 131, 4-(((2,6-dioxo-4-phenylcyclo-hexylidene)methyl)amino) butanoic acid] is 15 to 100 µM; for `CCOC(=O)C1C(=O)C(=CNCCN2CCN(CCO)CC2)C(=O)CC1c1ccccc1` (stereo not drawn) [Compound 335, ethyl 3-(((2-(4-(2-hydroxyethyl)piperazin-1-yl)ethyl)amino)methylene)-2,4-dioxo-6-phenylcyclohexane-1-carboxylate] it is 3 to 15 µM. Still for that read-out and setting: the same measure for `O=C1CC(c2ccccc2C(F)(F)F)CC(=O)C1=CO` (stereo not drawn) [Compound 426, 2-(hydroxymethylene)-5-(2-trifluoromethylphenyl) cyclohexane-1,3-dione]: below 3 µM. Consider `Cc1ccc2[nH]cc(C3CC(=O)C(=CN(C)C)C(=O)C3)c2c1` (stereo not drawn) [Compound 299, 2-((dimethylamino)methylene)-5-(5-methyl-1H-indol-3-yl)cyclohexane-1,3-dione], for which the IC50 fell in the range of 3 to 15 µM.

On to `O=C1Oc2ccc(-c3ccccc3)cc2C(=O)C1=CNCCN1CCN(CCO)CC1` [Compound 156, 3-(((2-(4-(2-hydroxyethyl)piperazin-1-yl)ethyl)amino)methylene)-6-phenylchromane-2,4-dione], for which the half-inhibitory concentration (IC50) was 3 to 15 µM.

With `Cc1[nH]c2ccccc2c1C1CC(=O)C(=CN(C)C)C(=O)C1` (stereo not drawn) [Compound 296, 2-((dimethylamino)methylene)-5-(2-methyl-1H-indol-3-yl)cyclohexane-1,3-dione], the IC50 is below 3 µM. Same read-out and setting: the same measure for `O=C1CC(c2cccc(Cl)c2Cl)CC(=O)C1=CO` (stereo not drawn) [Compound 421, 2-(hydroxymethylene)-5-(2,3-dichlorophenyl)cyclo-hexane-1,3-dione]: below 3 µM; for `CN(C)C=C1C(=O)CC(c2cccc(C(=O)NCCCCc3ccccc3)c2)CC1=O` (stereo not drawn) [Compound 269, 3-(4-((dimethylamino)methylene)-3,5-dioxocyclohexyl)-N-(4-phenylbutyl)-benzamide]: 3 to 15 µM; for `COc1ccc(C2CC(=O)C(=CNCCN3CCN(C(=O)N4CCOCC4)CC3)C(=O)C2)cc1` (stereo not drawn) [Compound 246, 5-(4-methoxyphenyl)-2-(((2-(4-(morpholine-4-carbonyl)piperazin-1-yl)ethyl)amino)-methylene) cyclohexane-1,3-dione]: below 3 µM. Take `Cc1ccc2c(C3CC(=O)C(=CN(C)C)C(=O)C3)c[nH]c2c1` (stereo not drawn) [Compound 293, 2-((dimethylamino)methylene)-5-(6-methyl-1H-indol-3-yl)cyclohexane-1,3-dione]: the IC50 is 3 to 15 µM. On the same count and under the same terms, the same measure for `O=C(NCCN1CCN(CCO)CC1)C1C(=O)Nc2ccccc2C1=O` (stereo not drawn) [Compound 326, N-(2-(4-(2-hydroxyethyl)piperazin-1-yl)ethyl)-2,4-dioxo-1,2,3,4-tetrahydroquinoline-3-carboxamide]: 100 to 1000 µM; for `O=C1CC(c2ccc(S(=O)(=O)N3CCOCC3)cc2)CC(=O)C1=CNCCN1CCN(CCO)CC1` (stereo not drawn) [Compound 92]: 15 to 100 µM; for `CC1(C)OC(=O)C(=CNCCN2CCN(CCO)CC2)C(=O)O1` [Compound 1, 5-(((2-(4-(2-hydroxyethyl)piperazin-1-yl)ethyl)amino)methylene)-2,2-dimethyl-1,3-dioxane-4,6-dione]: 100 to 1000 µM. On the same count and under the same terms, the figure for `O=C1CC(c2ccccc2)C(c2ccccc2)C(=O)C1=CNCCN1CCN(CCO)CC1` (stereo not drawn) [Compound 323, 2-(((2-(4-(2-hydroxyethyl)piperazin-1-yl)ethyl)amino)methylene)-4,5-diphenylcyclo-hexane-1,3-dione] is 3 to 15 µM; for `Cc1ccc(C2CC(=O)C(=CNCCN3CCN(C(=O)N(C)C)CC3)C(=O)C2)cc1` (stereo not drawn) [Compound 240, 4-(2-(((2,6-dioxo-4-(p-tolyl)cyclohexylidene)methyl)amino)ethyl)-N,N-dimethyl-piperazine-1-carboxamide] it is below 3 µM; for `CCCCn1cccc1C1CC(=O)C(=CN(C)C)C(=O)C1` (stereo not drawn) [Compound 279, 5-(1-butyl-1H-pyrrol-2-yl)-2-((dimethylamino)methylene) cyclohexane-1,3-dione] it is 3 to 15 µM. As for `O=C1CC(c2ccccn2)CC(=O)C1=CNCCN1CCN(CCO)CC1` (stereo not drawn) [Compound 53, 2-(((2-(4-(2-hydroxyethyl)piperazin-1-yl)ethyl)amino)methylene)-5-(pyridin-2-yl) cyclohexane-1,3-dione], the IC50 is 15 to 100 µM. Still for that read-out and setting: the same measure for `COc1ccc(CNC=C2C(=O)CC(c3ccccc3)CC2=O)cc1` (stereo not drawn) [Compound 145, 2-(((4-methoxybenzyl)amino)methylene)-5-phenylcyclo-hexane-1,3-dione]: 100 to 1000 µM; for `O=C1CC(c2ccccc2)C(F)C(=O)/C1=C/O` (stereo not drawn) [Compound 451, 2-(hydroxymethylene)-4-fluoro-5-(phenyl)cyclohexane-1,3-dione]: 3 to 15 µM; for `CN1C(=O)/C(=C\NCCN2CCN(CCO)CC2)C(=O)c2ccccc21` [Compound 193, 3-(((2-(4-(2-hydroxyethyl)piperazin-1-yl)ethyl)amino)methylene)-1-methylquinoline-2,4(1H,3H)-dione]: 15 to 100 µM.

The values above are taken from patent publication US11319303B2 (WIGEN BIOMEDICINE TECHNOLOGY (SHANGHAI) CO., LTD., priority 2017, dated 2022).
